# According to patent publication US11214565B2, “Compound, compositions, and methods” (Denali Therapeutics Inc., priority 2015, dated 2022):
# Biological target: LRRK2 G2019S enzyme (Homo sapiens (Human), UniProt Q5S007, G2019S)
# Experiment: LRRK2 G2019S TR-FRET biochemical kinase assay (LRRKtide substrate)
# Details: Table A-2; 5 nM LRRK2, 134 μM ATP, 60 minute reaction, 23° C.
# Method: LRRK2 G2019S enzyme, Substrate (LRRKtide), ATP, TR-FRET dilution buffer, pLRRKtide antibody, 384-well assay plate, and DMSO.
# 50 mM Tris pH 7.5, 10 mM MgCl2, 1 mM EGTA, 0.01% Brij-35, 2 mM DTT, 5 nM LRRK2, 134 μM ATP, 60 minute reaction time, 23° C. reaction temperature, and 10 μL total reaction volume.
# 1×TR-FRET dilution buffer, 10 mM EDTA, 2 nM antibody, 23° C. reaction temperature, and 10 μL total reaction volume.
# Compound solutions were prepared by initially diluting to 1 mM with DMSO. 35 μL of reference compound solution, 35 μL of test compound solution, and 35 μL HPE were successively added to the source plate (384-well assay plate, Labcyte). The plates were centrifuged at 2500 rpm for 1 minute and sealed in foil. POD was used to perform a 3.162 fold serial dilution and 100 nL of reference compound solution, test compound solution, HPE and ZPE were transferred to assay plates. The assay plate was centrifuged at 2500 rpm for 1 minute, and sealed with foil.
# To perform the enzyme reaction, 5 μL of LRRKtide substrate and kinase mixture in assay buffer was added to all wells of the assay plate. The plate was centrifuged to concentrate the mixture at the bottom of the wells. The assay plate was incubated at 23° C. for 20 minutes. Following incubation, 5 μL of 2×ATP in assay buffer was added to each well, and plates were centrifuged to concentrate the mixture at the bottom of the wells. The plate was incubated at 23° C. for 60 minutes.
# To perform the detection of the reaction, EDTA completely mixed in TR-FRET dilution buffer was added to antibody reagent. 10 μL of detection reagent was added to all wells of each well of the assay-plate and the plate was centrifuged to concentrate the mixture at the bottom of the wells. The plate was then incubated at 23° C. for 60 minutes. Plates were read on Perkin Elmer Envision 2104 instrument in TR-FRET mode using a 340 nm excitation filter, 520 nm fluorescence emission filter, and 490 or 495 nm terbium emission filter.
# B-2, C2, and D-4 respectively.
# Sequence of LRRK2 G2019S enzyme (Q5S007 whole entry G2019S): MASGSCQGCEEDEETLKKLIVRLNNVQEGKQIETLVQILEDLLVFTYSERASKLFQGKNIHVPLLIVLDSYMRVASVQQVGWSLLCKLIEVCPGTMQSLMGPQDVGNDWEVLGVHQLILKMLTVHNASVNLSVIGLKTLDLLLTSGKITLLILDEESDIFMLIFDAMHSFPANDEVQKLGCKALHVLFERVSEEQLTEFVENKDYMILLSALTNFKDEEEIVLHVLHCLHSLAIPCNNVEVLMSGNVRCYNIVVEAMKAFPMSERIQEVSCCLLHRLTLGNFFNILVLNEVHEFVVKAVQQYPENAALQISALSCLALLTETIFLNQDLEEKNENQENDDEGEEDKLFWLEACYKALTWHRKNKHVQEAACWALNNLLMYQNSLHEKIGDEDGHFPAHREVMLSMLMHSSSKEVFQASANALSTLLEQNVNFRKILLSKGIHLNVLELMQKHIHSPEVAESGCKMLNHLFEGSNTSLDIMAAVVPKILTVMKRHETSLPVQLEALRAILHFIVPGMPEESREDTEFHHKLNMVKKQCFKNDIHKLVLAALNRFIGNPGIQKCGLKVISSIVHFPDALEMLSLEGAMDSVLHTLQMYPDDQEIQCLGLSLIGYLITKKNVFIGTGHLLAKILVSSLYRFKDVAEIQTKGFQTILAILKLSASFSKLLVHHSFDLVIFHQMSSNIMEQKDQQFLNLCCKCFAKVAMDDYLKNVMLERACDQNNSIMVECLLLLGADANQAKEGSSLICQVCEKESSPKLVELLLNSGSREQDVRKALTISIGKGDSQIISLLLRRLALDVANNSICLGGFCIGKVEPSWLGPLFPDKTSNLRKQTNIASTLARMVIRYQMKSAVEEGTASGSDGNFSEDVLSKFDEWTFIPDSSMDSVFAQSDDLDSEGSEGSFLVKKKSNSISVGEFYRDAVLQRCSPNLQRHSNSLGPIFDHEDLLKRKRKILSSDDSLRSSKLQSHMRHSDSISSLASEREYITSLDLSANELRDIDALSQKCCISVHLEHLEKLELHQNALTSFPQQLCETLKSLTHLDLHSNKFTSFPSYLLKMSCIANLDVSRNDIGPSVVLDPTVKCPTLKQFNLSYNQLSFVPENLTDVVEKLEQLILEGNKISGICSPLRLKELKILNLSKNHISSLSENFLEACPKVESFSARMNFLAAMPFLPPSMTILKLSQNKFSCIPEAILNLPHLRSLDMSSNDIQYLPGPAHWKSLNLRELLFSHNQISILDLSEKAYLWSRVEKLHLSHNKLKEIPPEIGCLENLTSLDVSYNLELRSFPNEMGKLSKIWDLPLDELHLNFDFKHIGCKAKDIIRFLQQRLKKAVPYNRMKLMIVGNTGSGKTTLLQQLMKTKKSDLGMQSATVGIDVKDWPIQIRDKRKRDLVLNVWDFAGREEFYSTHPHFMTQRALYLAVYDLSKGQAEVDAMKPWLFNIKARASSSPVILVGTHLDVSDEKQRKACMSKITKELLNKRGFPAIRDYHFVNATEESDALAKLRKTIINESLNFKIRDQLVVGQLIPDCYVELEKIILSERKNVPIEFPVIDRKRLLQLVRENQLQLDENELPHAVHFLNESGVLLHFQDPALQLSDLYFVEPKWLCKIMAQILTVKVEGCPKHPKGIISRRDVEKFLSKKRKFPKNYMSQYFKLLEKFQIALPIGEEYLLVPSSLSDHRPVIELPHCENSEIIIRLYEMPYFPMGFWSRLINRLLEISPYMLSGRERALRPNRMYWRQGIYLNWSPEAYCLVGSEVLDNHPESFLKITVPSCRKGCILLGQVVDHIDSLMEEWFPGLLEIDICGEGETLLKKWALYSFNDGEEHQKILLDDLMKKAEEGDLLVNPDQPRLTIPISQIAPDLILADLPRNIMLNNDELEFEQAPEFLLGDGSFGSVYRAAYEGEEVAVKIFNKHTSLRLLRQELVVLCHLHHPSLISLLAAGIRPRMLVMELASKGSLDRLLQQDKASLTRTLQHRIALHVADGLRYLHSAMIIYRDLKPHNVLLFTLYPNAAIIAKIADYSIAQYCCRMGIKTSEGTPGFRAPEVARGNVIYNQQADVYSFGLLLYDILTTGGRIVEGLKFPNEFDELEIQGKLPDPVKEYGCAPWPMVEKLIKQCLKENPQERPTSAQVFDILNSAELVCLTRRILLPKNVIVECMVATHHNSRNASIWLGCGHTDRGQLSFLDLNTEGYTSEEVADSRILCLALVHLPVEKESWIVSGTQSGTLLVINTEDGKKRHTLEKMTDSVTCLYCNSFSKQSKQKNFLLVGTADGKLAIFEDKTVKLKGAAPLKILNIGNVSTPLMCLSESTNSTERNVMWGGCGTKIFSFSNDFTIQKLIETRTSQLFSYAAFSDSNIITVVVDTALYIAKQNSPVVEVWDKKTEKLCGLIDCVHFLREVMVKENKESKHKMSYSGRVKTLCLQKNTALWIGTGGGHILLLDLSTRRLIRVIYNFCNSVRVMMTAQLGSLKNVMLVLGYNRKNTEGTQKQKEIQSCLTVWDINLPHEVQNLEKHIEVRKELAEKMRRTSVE
row,Structure (SMILES),IC50 [nM]
1,"Cc1nn(C(C)(C)C#N)cc1Nc1ncc(C(F)(F)F)c(-c2cnn(C)c2)n1 [Compound A-9, 2-methyl-2-(3-methyl-4-((4-(1-methyl-1H-pyrazol-4-yl)-5-(trifluoromethyl)pyrimidin-2-yl)amino)-1H-pyrazol-1-yl)propanenitrile]",30 to 60
2,"Cc1nn(C2COC2)cc1Nc1ncc(C(F)(F)F)c(C2CC2)n1 [Compound A-14, 4-cyclopropyl-N-[3-methyl-1-(oxetan-3-yl)pyrazol-4-yl]-5-(trifluoromethyl)pyrimidin-2-amine]",< 30
3,"Cc1c(Nc2ncc(C(F)(F)F)c(C3CC3)n2)cnn1C1COC1 [Compound A-15, 4-cyclopropyl-N-[5-methyl-1-(oxetan-3-yl)pyrazol-4-yl]-5-(trifluoromethyl)pyrimidin-2-amine]",< 30
4,"CC(C)(C#N)n1cc(Nc2ncc(C(F)(F)F)c(C3CC3)n2)c(Cl)n1 [Compound A-17, 2-(3-chloro-4-((4-cyclopropyl-5-(trifluoromethyl)pyrimidin-2-yl)amino)-1H-pyrazol-1-yl)-2-methylpropanenitrile]",30 to 60
5,"Cc1c(Nc2ncc(C(F)(F)F)c(C3CC3)n2)cnn1CC(C)(C)O [Compound A-18, 1-[4-[[4-cyclopropyl-5-(trifluoromethyl)pyrimidin-2-yl]amino]-5-methyl-pyrazol-1-yl]-2-methyl-propan-2-ol]",30 to 60
6,"CC(=O)N1CCC(n2ncc(Nc3ncc(C(F)(F)F)c(C4CC4)n3)c2C)CC1 [Compound A-20, 1-[4-[4-[[4-cyclopropyl-5-(trifluoromethyl)pyrimidin-2-yl]amino]-5-methyl-pyrazol-1-yl]-1-piperidyl]ethanone]",< 30
7,"CC(=O)N1CCC(n2cc(Nc3ncc(C(F)(F)F)c(C4CC4)n3)c(C)n2)CC1 [Compound A-21, 1-[4-[4-[[4-cyclopropyl-5-(trifluoromethyl)pyrimidin-2-yl]amino]-3-methyl-pyrazol-1-yl]-1-piperidyl]ethanone]",30 to 60
8,"Cc1c(Nc2ncc(C(F)(F)F)c(C3CC3)n2)cnn1C1CCOCC1 [Compound A-24, 4-cyclopropyl-N-(5-methyl-1-tetrahydropyran-4-yl-pyrazol-4-yl)-5-(trifluoromethyl)pyrimidin-2-amine]",< 30
9,"Cc1nn(C2CCOCC2)cc1Nc1ncc(C(F)(F)F)c(C2CC2)n1 [Compound A-25, 4-cyclopropyl-N-(3-methyl-1-tetrahydropyran-4-yl-pyrazol-4-yl)-5-(trifluoromethyl)pyrimidin-2-amine]",30 to 60
10,"Cc1c(Nc2ncc(C(F)(F)F)c(C3CC3)n2)cnn1C1CCC(=O)N(C)C1 (stereo not drawn) [Compound A-26, 5-(4-((4-cyclopropyl-5-(trifluoromethyl)pyrimidin-2-yl)amino)-5-methyl-1H-pyrazol-1-yl)-1-methylpiperidin-2-one]",< 30
11,"Cc1nn(C2CCC(=O)N(C)C2)cc1Nc1ncc(C(F)(F)F)c(C2CC2)n1 (stereo not drawn) [Compound A-27, 5-(4-((4-cyclopropyl-5-(trifluoromethyl)pyrimidin-2-yl)amino)-3-methyl-1H-pyrazol-1-yl)-1-methylpiperidin-2-one]",> 60
12,"Cc1c(Nc2ncc(C(F)(F)F)c(C3CC3)n2)cnn1C(CF)CF [Compound A-28, 4-cyclopropyl-N-[1-[2-fluoro-1-(fluoromethyl)ethyl]-5-methyl-pyrazol-4-yl]-5-(trifluoromethyl)pyrimidin-2-amine]",< 30
13,"Cc1nn(C(CF)CF)cc1Nc1ncc(C(F)(F)F)c(C2CC2)n1 [Compound A-29, 4-cyclopropyl-N-[1-[2-fluoro-1-(fluoromethyl)ethyl]-3-methyl-pyrazol-4-yl]-5-(trifluoromethyl)pyrimidin-2-amine]",< 30
14,"Cc1c(Nc2ncc(C(F)(F)F)c(C3CC3)n2)cnn1CCF [Compound A-30, 4-cyclopropyl-N-(1-(2-fluoroethyl)-5-methyl-1H-pyrazol-4-yl)-5-(trifluoromethyl)pyrimidin-2-amine]",< 30
15,"Cc1nn(CCF)cc1Nc1ncc(C(F)(F)F)c(C2CC2)n1 [Compound A-31, 4-cyclopropyl-N-(1-(2-fluoroethyl)-3-methyl-1H-pyrazol-4-yl)-5-(trifluoromethyl)pyrimidin-2-amine]",< 30
16,"Cc1nn(C(C)(C)C#N)cc1Nc1ncc(Cl)c(C2CCC2)n1 [Compound A-32, 2-(4-((5-chloro-4-cyclobutylpyrimidin-2-yl)amino)-3-methyl-1H-pyrazol-1-yl)-2-methylpropanenitrile]",> 60
17,"Cc1nn(C(C)(C)c2ccnn2C)cc1Nc1ncc(Cl)c(C2CC2)n1 [Compound A-33, 5-chloro-4-cyclopropyl-N-(3-methyl-1-(2-(1-methyl-1H-pyrazol-5-yl)propan-2-yl)-1H-pyrazol-4-yl)pyrimidin-2-amine]",> 60
18,"Cc1nn(C(C)(C)C#N)cc1Nc1ncc(C(F)(F)F)c(C2(F)CC2)n1 [Compound A-38, 2-(4-((4-(1-fluorocyclopropyl)-5-(trifluoromethyl)pyrimidin-2-yl)amino)-3-methyl-1H-pyrazol-1-yl)-2-methylpropanenitrile]",> 60

# Second part, the molecule after the results:
row,IC50 [nM],Structure (SMILES)
1,> 60,"Cc1nn(C(C)(C)C#N)cc1Nc1ncc(C(F)(F)F)c(C2CCCC2)n1 [Compound A-10, 2-[4-[[4-cyclopentyl-5-(trifluoromethyl)pyrimidin-2-yl]amino]-3-methyl-pyrazol-1-yl]-2-methyl-propanenitrile]"
2,30 to 60,"Cc1nn(C(C)(C)C#N)cc1Nc1ncc(C(F)(F)F)c(C2CCC2)n1 [Compound A-11, 2-[4-[[4-cyclobutyl-5-(trifluoromethyl)pyrimidin-2-yl]amino]-3-methyl-pyrazol-1-yl]-2-methyl-propanenitrile]"
3,< 30,"[2H]C([2H])([2H])n1cnc(C(C)(C)n2cc(Nc3ncc(C(F)(F)F)c(C4CC4)n3)c(C)n2)n1 [Compound A-16, 4-cyclopropyl-N-[3-methyl-1-[1-methyl-1-[1-(trideuteriomethyl)-1,2,4-triazol-3-yl]ethyl]pyrazol-4-yl]-5-(trifluoromethyl)pyrimidin-2-amine]"
4,30 to 60,"Cc1nn(CC(C)(C)O)cc1Nc1ncc(C(F)(F)F)c(C2CC2)n1 [Compound A-19, 1-[4-[[4-cyclopropyl-5-(trifluoromethyl)pyrimidin-2-yl]amino]-3-methyl-pyrazol-1-yl]-2-methyl-propan-2-ol]"
5,> 60,"Cc1nn(C(C)(C)c2ccnn2C)cc1Nc1ncc(C(F)(F)F)c(C2CC2)n1 [Compound A-22, 4-cyclopropyl-N-(3-methyl-1-(2-(1-methyl-1H-pyrazol-5-yl)propan-2-yl)-1H-pyrazol-4-yl)-5-(trifluoromethyl)pyrimidin-2-amine]"
6,< 30,"Cc1nn(C(C)(C)c2ccn(C)n2)cc1Nc1ncc(C(F)(F)F)c(C2CC2)n1 [Compound A-23, 4-cyclopropyl-N-(3-methyl-1-(2-(1-methyl-1H-pyrazol-3-yl)propan-2-yl)-1H-pyrazol-4-yl)-5-(trifluoromethyl)pyrimidin-2-amine]"
7,< 30,"Cc1nn(C(C)(C)c2ccn(C)n2)cc1Nc1ncc(Cl)c(C2CC2)n1 [Compound A-34, 5-chloro-4-cyclopropyl-N-(3-methyl-1-(2-(1-methyl-1H-pyrazol-3-yl)propan-2-yl)-1H-pyrazol-4-yl)pyrimidin-2-amine]"
8,< 30,"Cc1nn(C(C)(C)c2ncn(C)n2)cc1Nc1ncc(Cl)c(C2CC2)n1 [Compound A-35, 5-chloro-4-cyclopropyl-N-(3-methyl-1-(2-(1-methyl-1H-1,2,4-triazol-3-yl)propan-2-yl)-1H-pyrazol-4-yl)pyrimidin-2-amine]"
9,< 30,"Cn1cnc(C(C)(C)n2cc(Nc3ncc(C(F)(F)F)c(C4CC4)n3)c(Cl)n2)n1 [Compound A-36, N-(3-chloro-1-(2-(1-methyl-1H-1,2,4-triazol-3-yl)propan-2-yl)-1H-pyrazol-4-yl)-4-cyclopropyl-5-(trifluoromethyl)pyrimidin-2-amine]"
10,> 60,"Cn1ncnc1C(C)(C)n1cc(Nc2ncc(C(F)(F)F)c(C3CC3)n2)c(Cl)n1 [Compound A-37, N-(3-chloro-1-(2-(1-methyl-1H-1,2,4-triazol-5-yl)propan-2-yl)-1H-pyrazol-4-yl)-4-cyclopropyl-5-(trifluoromethyl)pyrimidin-2-amine]"
11,< 30,"Cc1nn(C(C)(C)c2cn(C)nn2)cc1Nc1ncc(C(F)(F)F)c(C2CC2)n1 [Compound A-39, 4-cyclopropyl-N-(3-methyl-1-(2-(1-methyl-1H-1,2,3-triazol-4-yl)propan-2-yl)-1H-pyrazol-4-yl)-5-(trifluoromethyl)pyrimidin-2-amine]"
12,< 30,"Cc1nn(C(C)(C)c2cnn(C)n2)cc1Nc1ncc(C(F)(F)F)c(C2CC2)n1 [Compound A-40, 4-cyclopropyl-N-(3-methyl-1-(2-(2-methyl-2H-1,2,3-triazol-4-yl)propan-2-yl)-1H-pyrazol-4-yl)-5-(trifluoromethyl)pyrimidin-2-amine]"
